In ChEMBL document CHEMBL3046526, “-Glucosidase inhibitory and antioxidant properties and antidiabetic activity of Hypericum ascyron L” (Med Chem Res, 2011):
≈ marks a conversion by molar mass, not a printed value.

What was measured:
[1] = system: Radical scavenging activity; assay: Antioxidant activity assessed as inhibition of DPPH radical production at 54.05 ug/ml after 30 min by microplate assay; type: functional
[2] = target: Lysosomal alpha-glucosidase (Rattus norvegicus) (UniProt Q6P7A9); assay: Inhibition ofRattus norvegicus alpha-glucosidase isolated from intestine using PNPG as substrate at 0.03 uM incubated for 15 min prior to substrate addition measured after 15 min by spectrophotometric analysis
Homo sapiens [3] = organism: Homo sapiens; assay: Inhibition of alpha-glucosidase (unknown origin) using PNPG as substrate at 0.03 uM incubated for 15 min prior to substrate addition measured after 15 min by spectrophotometric analysis
[4] = target: Lysosomal alpha-glucosidase (Rattus norvegicus) (UniProt Q6P7A9); assay: Inhibition ofRattus norvegicus alpha-glucosidase isolated from intestine using PNPG as substrate at 0.02 uM incubated for 15 min prior to substrate addition measured after 15 min by spectrophotometric analysis
[5] = Inhibition of alpha-glucosidase (unknown origin) using PNPG as substrate at 0.02 uM incubated for 15 min prior to substrate addition measured after 15 min by spectrophotometric analysis; conditions: Homo sapiens
[6] = Inhibition of alpha-glucosidase (unknown origin) using PNPG as substrate incubated for 15 min prior to substrate addition measured after 15 min by spectrophotometric analysis; design: species or system Homo sapiens
Homo sapiens [7] = organism: Homo sapiens; assay: Inhibition of alpha-glucosidase (unknown origin) using PNPG as substrate at 0.83 uM incubated for 15 min prior to substrate addition measured after 15 min by spectrophotometric analysis
[8] = target: Lysosomal alpha-glucosidase (Rattus norvegicus) (UniProt Q6P7A9); conditions: 0.83 uM
Description: Inhibition ofRattus norvegicus alpha-glucosidase isolated from intestine using PNPG as substrate at 0.83 uM incubated for 15 min prior to substrate addition measured after 15 min by spectrophotometric analysis

[9] = system: Radical scavenging activity; assay: Antioxidant activity assessed as inhibition of DPPH radical production after 30 min by microplate assay; type: functional
[10] = system: Radical scavenging activity; assay: Antioxidant activity assessed as inhibition of DPPH radical production at 108.11 ug/ml after 30 min by microplate assay; type: functional
[11] = system: Radical scavenging activity; assay: Antioxidant activity assessed as inhibition of DPPH radical production at 10.81 ug/ml after 30 min by microplate assay; type: functional

Chain of Lysosomal alpha-glucosidase (Rattus norvegicus) (Q6P7A9 whole entry): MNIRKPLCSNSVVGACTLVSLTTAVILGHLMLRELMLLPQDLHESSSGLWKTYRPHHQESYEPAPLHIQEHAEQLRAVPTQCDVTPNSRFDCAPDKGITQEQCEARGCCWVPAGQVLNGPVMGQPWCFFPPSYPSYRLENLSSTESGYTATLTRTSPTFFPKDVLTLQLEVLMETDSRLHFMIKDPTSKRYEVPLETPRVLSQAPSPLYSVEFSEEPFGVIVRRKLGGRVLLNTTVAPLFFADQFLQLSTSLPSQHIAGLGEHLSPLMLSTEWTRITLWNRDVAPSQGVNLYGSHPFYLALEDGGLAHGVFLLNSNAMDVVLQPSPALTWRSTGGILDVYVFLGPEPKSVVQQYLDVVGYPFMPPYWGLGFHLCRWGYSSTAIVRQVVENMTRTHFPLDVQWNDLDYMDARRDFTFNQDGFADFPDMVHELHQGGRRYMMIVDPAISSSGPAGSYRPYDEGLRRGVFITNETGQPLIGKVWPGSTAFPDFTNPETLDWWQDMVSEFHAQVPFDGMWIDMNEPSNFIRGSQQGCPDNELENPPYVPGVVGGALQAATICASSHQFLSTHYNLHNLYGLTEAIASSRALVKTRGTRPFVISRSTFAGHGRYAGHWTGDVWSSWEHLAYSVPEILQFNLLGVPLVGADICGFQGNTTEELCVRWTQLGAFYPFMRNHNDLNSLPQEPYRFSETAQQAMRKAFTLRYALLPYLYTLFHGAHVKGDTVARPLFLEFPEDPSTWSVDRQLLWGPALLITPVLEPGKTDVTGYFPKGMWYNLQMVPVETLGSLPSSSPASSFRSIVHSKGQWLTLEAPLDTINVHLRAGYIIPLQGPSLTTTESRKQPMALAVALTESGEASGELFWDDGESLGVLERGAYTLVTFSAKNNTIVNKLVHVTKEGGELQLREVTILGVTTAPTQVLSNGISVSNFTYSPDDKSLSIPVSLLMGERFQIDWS

SMILES | inhibition [4] | inhibition [5] | IC50 [6] | IC50 [9] | inhibition [1] | further results
O=c1c(O)c(-c2ccc(O)c(O)c2)oc2c(O)ccc(O)c12 |  |  |  |  | 2.63% | inhibition [2]: < 50%; inhibition (Homo sapiens [3]): 14.3%
C[C@H]1O[C@H](O[C@H]2[C@H](O)[C@@H](O)[C@@H](O[C@H]3[C@H](O)[C@@H](O)C(O)O[C@@H]3CO)O[C@@H]2CO)[C@H](O)[C@@H](O)[C@@H]1N[C@H]1C=C(CO)[C@@H](O)[C@H](O)[C@H]1O (some centres undefined) [ACARBOSE] |  |  | 895 µM |  |  | inhibition (Homo sapiens [7]): 68.4%; inhibition [8]: 55.2%
O=c1c(O[C@@H]2O[C@H](CO)[C@H](O)[C@H](O)[C@H]2O)c(-c2ccc(O)c(O)c2)oc2cc(O)cc(O)c12 [HYPEROSIDE] | < 50% | 14.2% |  | 24.02 µg/mL (≈ 51.7 µM) | 86.5% | 
O=c1c(O[C@@H]2O[C@H](CO)[C@@H](O)[C@H](O)[C@H]2O)c(-c2ccc(O)c(O)c2)oc2cc(O)cc(O)c12 [ISOQUERCETIN] | < 50% | 14.4% |  | 24.02 µg/mL (≈ 51.7 µM) | 86.1% | 
CCCOC(=O)c1cc(O)c(O)c(O)c1 [PROPYL GALLATE] |  |  |  | 3.96 µg/mL (≈ 18.7 µM) |  | inhibition [11]: 89%

Continued, in another order:

inhibition [4] | inhibition [5] | IC50 [6] | IC50 [9] | SMILES | inhibition [1] | further results
< 50% | 18% |  |  | O=c1c(O[C@@H]2O[C@H](CO)[C@@H](O)[C@H](O)[C@H]2O)c(-c2ccc(O)cc2)oc2cc(O)cc(O)c12 | 1.96% | 
 |  |  | 40.8 µg/mL (≈ 185 µM) | Cc1cc(C(C)(C)C)c(O)c(C(C)(C)C)c1 [BUTYLATED HYDROXYTOLUENE] |  | inhibition [10]: 80.5%
 |  | 61.8 µM | 14.78 µg/mL (≈ 51.6 µM) | O=c1c(O)c(-c2ccc(O)cc2)oc2cc(O)cc(O)c12 [KAEMPFEROL] | 90.1% | inhibition [2]: 99.3%; inhibition (Homo sapiens [3]): 51.5%
< 50% | 99.7% | 1.78 µM |  | C[C@H]1[C@H](C)CC[C@]2(C(=O)O)CC[C@]3(C)C(=CC[C@@H]4[C@@]5(C)CC[C@H](O)C(C)(C)[C@@H]5CC[C@]43C)[C@H]12 [URSOLIC ACID] |  | 
